Source: ChEMBL document CHEMBL1142599, “Biocatalytic and antimetastatic studies of the marine cembranoids sarcophine and 2-epi-16-deoxysarcophine” (J Nat Prod, 2006)

Species on record: Mus musculus
Assay: Inhibition of mouse B16B15b cell migration after 16 hrs by wound-healing assay
Assay type: functional

| Compound | Activity |
| --- | --- |
| CC1=C2[C@@H](O)C/C(C)=C/CC[C@]3(C)O[C@H]3CC/C(C)=C/[C@H]2OC1 | Dose-dependent effect |
| CC1=C2CC/C(C)=C/C[C@H](O)[C@]3(C)O[C@H]3CC/C(C)=C/[C@H]2OC1 | Dose-dependent effect |
| CC1=C2CC/C(C)=C/C[C@H](O)[C@]3(C)O[C@H]3CC/C(C)=C/[C@@H]2OC1=O | Dose-dependent effect |
| CC1=C2CC/C(C)=C/[C@@H](O)C[C@]3(C)O[C@H]3CC/C(C)=C/[C@H]2OC1 | Dose-dependent effect |
| CC1=C2CC/C(C)=C/CC[C@]3(C)O[C@H]3CC/C(C)=C/[C@@H]2OC1=O | Dose-dependent effect |
| CC1=C2CC/C(C)=C/CC[C@]3(C)O[C@H]3CC/C(C)=C/[C@H]2OC1 | Dose-dependent effect |
| C/C1=C\[C@H]2OC[C@@]3(C)O[C@@]23CC/C(C)=C/CC[C@]2(C)O[C@H]2CC1 | Dose-dependent effect |
